Assay [1] addresses T1, mTOR (Homo sapiens, UniProt P42345).
T1 construct: purchased Ambit Biosciences (contract assay)
Nature of the assay: Kinase competition binding assay (Ambit Biosciences), mTOR. Particulars: tested at Ambit Biosciences; read-out: IC50 against mTOR. The protocol:
(§1) Assays are performed as described in Fabian et al. (2005) Nature Biotechnology, vol. 23, p. 329 and in Karaman et al. (2008) Nature Biotechnology, vol. 26, p. 127.
(§2) Kinase assays. For most assays, kinase-tagged T7 phage strains are grown in parallel in 24-well blocks in an E. coli host derived from the BL21 strain. E. coli are grown to log-phase and are infected with T7 phage from a frozen stock (multiplicity of infection˜0.1) and are incubated with shaking at 32° C. until lysis (˜90 minutes). The lysates are centrifuged (6,000×g) and filtered ([…]) to remove cell debris. The remaining kinases are produced in HEK-293 cells and subsequently tagged with DNA for qPCR detection. Streptavidin-coated magnetic beads are treated with biotinylated small molecule ligands for 30 minutes at room temperature to generate affinity resins for kinase assays. The liganded beads are blocked with excess biotin and washed with blocking buffer (SeaBlock (Pierce), 1% BSA, 0.05% Tween 20, 1 mM DTT) to remove unbound ligand and to reduce non-specific phage binding. Binding reactions are assembled by combining kinases, liganded affinity beads, and test compounds in 1× binding buffer (20% SeaBlock, 0.17×PBS, 0.05% Tween 20, 6 mM DTT). Test compounds are prepared as 40× stocks in 100% DMSO and directly diluted into the assay. All reactions are performed in polypropylene 384-well plates in a final volume of 0.04 ml. The assay plates are incubated at room temperature with shaking for 1 hour and the affinity beads are washed with wash buffer (1×PBS, 0.05% Tween 20). The beads are then re-suspended in elution buffer (1×PBS, 0.05% Tween 20, 0.5 mM non-biotinylated affinity ligand) and are incubated at room temperature with shaking for 30 minutes. The kinase concentration in the eluates is measured by qPCR.
(§3) Compounds were tested using the above assay at Ambit Biosciences (San Diego, Calif., USA).

Assay [2] deals with T2, PI3Kα (Homo sapiens, UniProt P42336).
T2 construct: purchased Ambit Biosciences (contract assay)
T2 sequence (P42336 whole entry): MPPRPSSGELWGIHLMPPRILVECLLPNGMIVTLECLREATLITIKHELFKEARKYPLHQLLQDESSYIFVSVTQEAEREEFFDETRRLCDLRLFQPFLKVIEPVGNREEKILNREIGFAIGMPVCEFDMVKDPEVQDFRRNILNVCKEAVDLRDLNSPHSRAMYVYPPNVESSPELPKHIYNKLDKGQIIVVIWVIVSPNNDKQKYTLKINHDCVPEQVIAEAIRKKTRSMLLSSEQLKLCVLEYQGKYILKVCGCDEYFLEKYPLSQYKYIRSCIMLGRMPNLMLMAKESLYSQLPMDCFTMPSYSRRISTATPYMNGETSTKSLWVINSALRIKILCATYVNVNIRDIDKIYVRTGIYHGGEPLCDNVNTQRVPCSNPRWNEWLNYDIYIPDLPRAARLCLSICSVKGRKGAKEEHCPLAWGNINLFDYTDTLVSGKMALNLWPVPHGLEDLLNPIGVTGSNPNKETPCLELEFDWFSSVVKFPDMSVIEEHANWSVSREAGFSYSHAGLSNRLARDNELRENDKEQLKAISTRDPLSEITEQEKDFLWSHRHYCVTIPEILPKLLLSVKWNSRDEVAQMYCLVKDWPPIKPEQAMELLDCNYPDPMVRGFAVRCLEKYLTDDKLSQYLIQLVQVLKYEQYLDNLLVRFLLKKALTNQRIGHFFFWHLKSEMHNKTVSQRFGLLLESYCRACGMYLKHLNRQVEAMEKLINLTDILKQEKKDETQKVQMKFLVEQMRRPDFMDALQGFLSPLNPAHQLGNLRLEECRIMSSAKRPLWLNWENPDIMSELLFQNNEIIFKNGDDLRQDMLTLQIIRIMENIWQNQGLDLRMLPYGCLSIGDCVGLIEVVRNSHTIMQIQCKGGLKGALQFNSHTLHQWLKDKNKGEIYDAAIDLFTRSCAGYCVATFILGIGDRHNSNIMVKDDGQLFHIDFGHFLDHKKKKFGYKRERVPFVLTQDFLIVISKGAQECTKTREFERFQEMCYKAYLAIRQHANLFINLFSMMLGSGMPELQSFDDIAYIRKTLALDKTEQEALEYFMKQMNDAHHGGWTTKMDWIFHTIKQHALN
The assay can be described thus: Kinase competition binding assay (Ambit Biosciences), PI3Kα. As to conditions: tested at Ambit Biosciences; read-out: IC50 against PI3Kα. The protocol:
as §1, §2, §3

The target of assay [3] is T3, PI3Kβ (Homo sapiens, UniProt P42338).
T3 construct: purchased Ambit Biosciences (contract assay)
T3 sequence (P42338 whole entry): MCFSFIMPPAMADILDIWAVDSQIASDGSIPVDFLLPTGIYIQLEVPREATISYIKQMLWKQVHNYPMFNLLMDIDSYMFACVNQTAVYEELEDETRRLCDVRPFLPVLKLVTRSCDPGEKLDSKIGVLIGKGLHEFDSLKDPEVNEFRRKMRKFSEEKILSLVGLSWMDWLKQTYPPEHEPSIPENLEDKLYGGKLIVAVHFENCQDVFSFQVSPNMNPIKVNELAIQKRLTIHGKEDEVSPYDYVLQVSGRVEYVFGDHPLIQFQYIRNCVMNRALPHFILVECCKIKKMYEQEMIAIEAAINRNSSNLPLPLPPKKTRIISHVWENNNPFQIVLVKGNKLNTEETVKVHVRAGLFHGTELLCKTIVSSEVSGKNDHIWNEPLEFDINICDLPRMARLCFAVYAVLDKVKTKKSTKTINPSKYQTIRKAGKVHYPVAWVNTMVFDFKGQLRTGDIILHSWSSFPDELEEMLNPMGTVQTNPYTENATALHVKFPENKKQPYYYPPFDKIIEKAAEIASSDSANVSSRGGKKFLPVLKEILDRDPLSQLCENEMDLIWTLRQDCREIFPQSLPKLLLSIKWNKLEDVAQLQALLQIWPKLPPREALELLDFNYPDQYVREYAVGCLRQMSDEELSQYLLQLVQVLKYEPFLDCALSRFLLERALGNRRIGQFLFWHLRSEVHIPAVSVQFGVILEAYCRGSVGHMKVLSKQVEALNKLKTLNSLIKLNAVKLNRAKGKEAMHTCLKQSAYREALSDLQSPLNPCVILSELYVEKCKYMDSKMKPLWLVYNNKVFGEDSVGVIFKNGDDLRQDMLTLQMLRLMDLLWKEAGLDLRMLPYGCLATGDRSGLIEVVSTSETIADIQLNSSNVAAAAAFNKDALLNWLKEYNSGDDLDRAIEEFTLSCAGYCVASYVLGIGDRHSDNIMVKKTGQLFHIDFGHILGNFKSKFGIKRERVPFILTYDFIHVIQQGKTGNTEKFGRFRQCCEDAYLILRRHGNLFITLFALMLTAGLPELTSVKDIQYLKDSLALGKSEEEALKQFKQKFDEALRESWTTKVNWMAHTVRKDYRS
The assay can be described thus: Kinase competition binding assay (Ambit Biosciences), PI3Kβ. Particulars: tested at Ambit Biosciences; read-out: IC50 against PI3Kβ. The protocol: as §1, §2, §3

Assay [4] deals with T4, PI3Kδ (Homo sapiens, UniProt O00329).
T4 construct: purchased Ambit Biosciences (contract assay)
T4 sequence (O00329 1-1044): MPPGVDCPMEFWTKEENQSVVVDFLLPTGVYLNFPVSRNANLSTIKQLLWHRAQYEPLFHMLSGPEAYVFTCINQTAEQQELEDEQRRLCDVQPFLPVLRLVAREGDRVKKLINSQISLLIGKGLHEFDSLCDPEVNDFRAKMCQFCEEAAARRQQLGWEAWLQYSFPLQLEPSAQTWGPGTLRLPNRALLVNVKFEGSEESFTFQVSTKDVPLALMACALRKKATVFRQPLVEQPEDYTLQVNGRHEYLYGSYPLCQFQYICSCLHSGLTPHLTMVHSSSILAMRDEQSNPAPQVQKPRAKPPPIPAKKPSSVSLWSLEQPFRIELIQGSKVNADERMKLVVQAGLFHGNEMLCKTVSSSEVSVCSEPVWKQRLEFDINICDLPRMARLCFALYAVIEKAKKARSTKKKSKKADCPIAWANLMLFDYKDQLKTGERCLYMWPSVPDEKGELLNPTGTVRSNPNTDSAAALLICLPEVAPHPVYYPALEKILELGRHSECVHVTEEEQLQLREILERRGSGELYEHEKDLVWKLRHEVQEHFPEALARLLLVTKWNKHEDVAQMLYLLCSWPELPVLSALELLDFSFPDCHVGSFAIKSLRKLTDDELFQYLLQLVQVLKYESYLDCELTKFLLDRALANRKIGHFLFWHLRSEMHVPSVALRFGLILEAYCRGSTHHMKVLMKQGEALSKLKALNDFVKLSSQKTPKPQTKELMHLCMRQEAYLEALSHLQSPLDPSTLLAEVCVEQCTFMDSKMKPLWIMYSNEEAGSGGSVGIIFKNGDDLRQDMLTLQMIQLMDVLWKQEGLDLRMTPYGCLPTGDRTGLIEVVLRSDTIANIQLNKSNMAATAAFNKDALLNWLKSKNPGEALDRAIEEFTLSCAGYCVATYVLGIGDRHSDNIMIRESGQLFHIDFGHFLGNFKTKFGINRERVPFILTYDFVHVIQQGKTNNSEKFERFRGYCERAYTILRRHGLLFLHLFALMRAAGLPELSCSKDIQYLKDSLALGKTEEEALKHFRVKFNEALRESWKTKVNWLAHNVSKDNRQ
Nature of the assay: Kinase competition binding assay (Ambit Biosciences), PI3Kδ. As to conditions: tested at Ambit Biosciences; read-out: IC50 against PI3Kδ. The protocol: as §1, §2, §3

The target of assay [5] is T5, PI3Kγ (Homo sapiens, UniProt P48736).
T5 construct: purchased Ambit Biosciences (contract assay)
T5 sequence (P48736 whole entry): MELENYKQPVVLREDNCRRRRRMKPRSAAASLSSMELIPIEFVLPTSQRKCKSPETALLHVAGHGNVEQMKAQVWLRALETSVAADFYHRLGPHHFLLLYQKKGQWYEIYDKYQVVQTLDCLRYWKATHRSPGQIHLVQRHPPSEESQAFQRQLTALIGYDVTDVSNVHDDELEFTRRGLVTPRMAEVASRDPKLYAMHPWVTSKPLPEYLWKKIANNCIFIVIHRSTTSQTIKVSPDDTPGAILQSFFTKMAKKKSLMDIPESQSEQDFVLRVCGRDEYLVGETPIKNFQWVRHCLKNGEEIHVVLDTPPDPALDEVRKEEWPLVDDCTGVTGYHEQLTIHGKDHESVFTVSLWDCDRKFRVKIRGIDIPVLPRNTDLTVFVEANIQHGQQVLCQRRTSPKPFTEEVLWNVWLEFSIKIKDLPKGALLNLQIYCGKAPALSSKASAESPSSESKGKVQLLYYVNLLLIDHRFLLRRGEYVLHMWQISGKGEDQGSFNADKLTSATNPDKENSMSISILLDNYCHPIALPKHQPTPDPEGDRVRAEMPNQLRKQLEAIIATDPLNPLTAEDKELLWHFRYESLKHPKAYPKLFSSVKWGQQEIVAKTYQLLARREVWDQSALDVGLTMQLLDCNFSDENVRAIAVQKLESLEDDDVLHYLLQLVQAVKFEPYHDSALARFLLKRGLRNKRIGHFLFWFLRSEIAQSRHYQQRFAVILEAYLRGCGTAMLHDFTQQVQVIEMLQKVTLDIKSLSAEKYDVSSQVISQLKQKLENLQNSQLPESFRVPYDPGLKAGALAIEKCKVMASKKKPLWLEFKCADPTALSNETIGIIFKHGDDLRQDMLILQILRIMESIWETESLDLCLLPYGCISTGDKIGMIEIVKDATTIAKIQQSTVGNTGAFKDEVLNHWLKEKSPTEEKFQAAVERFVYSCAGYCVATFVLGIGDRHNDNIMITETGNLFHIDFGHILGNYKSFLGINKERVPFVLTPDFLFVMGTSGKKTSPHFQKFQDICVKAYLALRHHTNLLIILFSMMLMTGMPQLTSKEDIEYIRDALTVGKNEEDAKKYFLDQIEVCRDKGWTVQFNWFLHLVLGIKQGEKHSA
The assay can be described thus: Kinase competition binding assay (Ambit Biosciences), PI3Kγ. Particulars: tested at Ambit Biosciences; read-out: IC50 against PI3Kγ. Here is the method: as §1, §2, §3

Assay [6] has as its system U87-MG cells. Nature of the assay: Proliferation assay (Alamar blue), U87-MG. Type of assay: cell-based. Particulars: Homo sapiens, U-87 MG, 48 h, 46-h incubation + 2-h Alamar blue, read-out: IC50 against proliferation of U87-MG cells. The protocol:
(§4) Cells (U87-MG, A375, HeLa, A549, MCF7, and MCF7 ADR-res) are cultured in DMEM with 10% fetal bovine serum and streptomycin/penicillin. Solutions of the test compounds (1 μL) are spotted onto a 96-well culture plate, followed by addition of cells (1×10^4) in 100 μL. After 46-h incubation, 10 μL of Alamar blue reagent is added to each well. After 2-h, the excitation/emission wavelengths at 544/590 nm are measured using Fluostar.
In general terms: Resazurin is reduced to fluorescent resorufin, in cell work by metabolically active cells.

Assay [7] deals with A549 cells. Nature of the assay: Proliferation assay (Alamar blue), A549. Particulars: Homo sapiens, 48 h; A549, 46-h incubation + 2-h Alamar blue; read-out: IC50 against proliferation of A549 cells. Type of assay: cell-based. Here is the method: as §4

Turning to `CNC(=O)Nc1ccc(-c2nc(N3CCOC[C@@H]3C)nc3c2cnn3C2CCOCC2)cc1` [Example 15, 1-methyl-3-[4-[6-[(3S)-3-methylmorpholin-4-yl]-1-tetrahydropyran-4-yl-pyrazolo[3,4-d]pyrimidin-4-yl]phenyl]urea], the IC50 in assay [1] was below 110 nM; in assay [2], above 100 nM; in assay [3], above 100 nM; in assay [4], above 100 nM; in assay [5], above 100 nM; in assay [6], below 1000 nM. In addition, in assay [7], the IC50 is below 1000 nM.

Source of the values: patent publication US8912178B2, “mTOR selective kinase inhibitors” (Xcovery Holdings Company, LLC, priority 2010, dated 2014).
